Assay results reported in PubChem BioAssay AID330 (DTP/NCI, 2004).
Where “and” joins values, the source holds several entries; their conditions need not be identical. Equal values may be shown once. Inconclusive results and toxic doses are left out.

Tested on: P388 leukemia ip, CD2F1 mice, survival T/C
Assay: NCI In Vivo Anticancer Drug Screen. Data for tumor model P388 Leukemia (intraperitoneal) in CD2F1 (CDF1) mice
Details: endpoint: median survival time, higher = longer survival
Procedure, shortened: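 Mice carrying the transplanted tumor received test compound or vehicle. Survival was recorded in each group, and the value is the treated-group measurement divided by that of the vehicle-treated control group.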

[1] = dose: 50.0 mg/kg/injection, schedule: Q01DX005 (ip), vehicle: saline with Tween-80
[2] = dose: 100.0 mg/kg/injection, schedule: Q01DX005 (ip), vehicle: saline with Tween-80
[3] = dose: 200.0 mg/kg/injection, schedule: Q01DX005 (ip), vehicle: saline with Tween-80
[4] = dose: 50.0 mg/kg/injection, schedule: Q01DX005 (ip), vehicle: Klucel (hydroxypropylcellulose) (HPC)
[5] = dose: 100.0 mg/kg/injection, schedule: Q01DX005 (ip), vehicle: Klucel (hydroxypropylcellulose) (HPC)
[6] = dose: 100.0 mg/kg/injection, schedule: Q01DX001 (ip), vehicle: Klucel (hydroxypropylcellulose) (HPC)
[7] = dose: 200.0 mg/kg/injection, schedule: Q01DX001 (ip), vehicle: Klucel (hydroxypropylcellulose) (HPC)
[8] = dose: 400.0 mg/kg/injection, schedule: Q01DX001 (ip), vehicle: Klucel (hydroxypropylcellulose) (HPC)
[9] = dose: 50.0 mg/kg/injection, schedule: Q01DX009 (ip), vehicle: saline with Tween-80
[10] = dose: 100.0 mg/kg/injection, schedule: Q01DX009 (ip), vehicle: saline with Tween-80
[11] = dose: 25.0 mg/kg/injection, schedule: Q01DX009 (ip), vehicle: saline with Tween-80
[12] = dose: 50.0 mg/kg/injection, schedule: Q01DX009 (ip), vehicle: Klucel (hydroxypropylcellulose) (HPC)
[13] = dose: 100.0 mg/kg/injection, schedule: Q01DX009 (ip), vehicle: Klucel (hydroxypropylcellulose) (HPC)
[14] = dose: 200.0 mg/kg/injection, schedule: Q01DX009 (ip), vehicle: Klucel (hydroxypropylcellulose) (HPC)

Structure (SMILES): CCC1=C[C@H]2CN(CCc3c([nH]c4ccccc34)[C@@](C(=O)OC)(c3cc4c(cc3OC)N(C=O)[C@H]3[C@@](O)(C(=O)OC)[C@H](OC(C)=O)[C@]5(CC)C=CCN6CC[C@]43[C@@H]65)C2)C1
- T/C (dose: 0.13 mg/kg/injection, schedule: Q01DX001 (ip), vehicle: water): 99 % of control
- T/C (dose: 0.25 mg/kg/injection, schedule: Q01DX001 (ip), vehicle: water): 100 % of control
- T/C (dose: 0.5 mg/kg/injection, schedule: Q01DX001 (ip), vehicle: water): 116 % of control

Structure (SMILES): CC(C)(C)OC(=O)NC(Cc1ccc(OCc2ccccc2)cc1)C(=O)O (stereo not drawn)
- T/C [1]: 104 % of control
- T/C [2]: 106 % of control
- T/C [3]: 97 % of control

Structure (SMILES): CN(CCO)c1ncnc2c1ncn2C
- T/C (dose: 50.0 mg/kg/injection, schedule: Q01DX005 (ip), vehicle: saline): 99 % of control
- T/C (dose: 100.0 mg/kg/injection, schedule: Q01DX005 (ip), vehicle: saline): 108 % of control
- T/C (dose: 200.0 mg/kg/injection, schedule: Q01DX005 (ip), vehicle: saline): 100 % of control

Structure (SMILES): CN(C)CCC(=O)c1ccccc1
- T/C (dose: 50.0 mg/kg/injection, schedule: Q01DX009 (ip), vehicle: saline): 104 % of control
- T/C (dose: 100.0 mg/kg/injection, schedule: Q01DX009 (ip), vehicle: saline): 110 % of control

Structure (SMILES): O=Nc1c(O)c2ccccc2c2ccccc12
- T/C (dose: 25.0 mg/kg/injection, schedule: Q01DX005 (ip), vehicle: Klucel (hydroxypropylcellulose) (HPC)): 102 % of control
- T/C [4]: 102 % of control
- T/C [5]: 112 % of control

Structure (SMILES): Oc1ccccc1C=NCc1ccccc1.[CH-]=C([CH2-])C.[Pd+2]
- T/C (dose: 6.25 mg/kg/injection, schedule: Q01DX009 (ip), vehicle: Klucel (hydroxypropylcellulose) (HPC)): 107 % of control
- T/C (dose: 6.25 mg/kg/injection, schedule: Q04DX003 (ip), vehicle: Klucel (hydroxypropylcellulose) (HPC)): 92 % of control
- T/C (dose: 12.5 mg/kg/injection, schedule: Q01DX009 (ip), vehicle: Klucel (hydroxypropylcellulose) (HPC)): 106 % of control
- T/C (dose: 12.5 mg/kg/injection, schedule: Q04DX003 (ip), vehicle: Klucel (hydroxypropylcellulose) (HPC)): 113 % of control
- T/C (dose: 25.0 mg/kg/injection, schedule: Q01DX009 (ip), vehicle: Klucel (hydroxypropylcellulose) (HPC)): 106 % of control
- T/C (dose: 25.0 mg/kg/injection, schedule: Q04DX003 (ip), vehicle: Klucel (hydroxypropylcellulose) (HPC)): 111 % of control

Structure (SMILES): c1ccc2c(c1)oc1c3c(ccc12)NCCC3
- T/C [1]: 104 % of control
- T/C [2]: 99 % of control
- T/C [3]: 104 % of control

Structure (SMILES): Cc1ccc(NC(=S)SCc2ccccc2)cc1Cl
- T/C (dose: 100.0 mg/kg/injection, schedule: Q04DX002 (ip), vehicle: saline): 98 % of control
- T/C (dose: 200.0 mg/kg/injection, schedule: Q04DX002 (ip), vehicle: saline): 100 % of control
- T/C (dose: 400.0 mg/kg/injection, schedule: Q04DX002 (ip), vehicle: saline): 106 % of control

Structure (SMILES): CC(=O)OCC1OC(n2c(Br)nc3c(=O)[nH]c(N)nc32)C(OC(C)=O)C1OC(C)=O (stereo not drawn)
- T/C [1]: 102 % of control
- T/C [2]: 104 % of control
- T/C [3]: 107 % of control

Structure (SMILES): Cc1c(Cl)cc([N+](=O)[O-])cc1S(=O)(=O)Oc1ccccc1
- T/C [6]: 103 % of control
- T/C [7]: 108 % of control
- T/C [8]: 100 % of control

Structure (SMILES): CCOC(=O)C(=CNC(C)(C)C)C(=O)OCC
- T/C [9]: 106 % of control
- T/C [10]: 115 % of control
- T/C (dose: 200.0 mg/kg/injection, schedule: Q01DX009 (ip), vehicle: saline with Tween-80): 100 % of control

Structure (SMILES): CCN1C(=O)CCN(S(=O)(=O)c2ccc(-n3nc(C)cc3C)cc2)C1=S
- T/C [1]: 99 % of control
- T/C [2]: 95 % of control
- T/C [3]: 103 % of control

Structure (SMILES): COC(=O)NN(C(=O)OC)C12CCCCC1N(C(=O)OC)N(C(=O)OC)c1ccccc12 (stereo not drawn)
- T/C [6]: 103 % of control
- T/C [7]: 98 % of control
- T/C [8]: 100 % of control

Structure (SMILES): O=S(=O)(O)CC[S][Sn]([S]CCS(=O)(=O)O)([c]1ccccc1)[c]1ccccc1
- T/C (dose: 3.75 mg/kg/injection, schedule: Q01DX005 (ip), vehicle: Klucel (hydroxypropylcellulose) (HPC)): 153 % of control

Structure (SMILES): O=[N+]([O-])c1ccc2nc(Cl)sc2c1
- T/C [11]: 95 % of control
- T/C [9]: 90 % of control
- T/C [10]: 109 % of control

Structure (SMILES): c1ccc(-c2cn3ccsc3n2)cc1
- T/C (dose: 25.0 mg/kg/injection, schedule: Q01DX009 (ip), vehicle: other): 109 % of control
- T/C (dose: 50.0 mg/kg/injection, schedule: Q01DX009 (ip), vehicle: other): 115 % of control
- T/C (dose: 100.0 mg/kg/injection, schedule: Q01DX009 (ip), vehicle: other): 115 % of control
- T/C (dose: 200.0 mg/kg/injection, schedule: Q01DX009 (ip), vehicle: other): 115 % of control

Structure (SMILES): O=C1CN(c2ccc(Cl)cc2)C(=O)CN1/N=C/c1ccco1
- T/C [1]: 103 % of control
- T/C [2]: 107 % of control
- T/C [3]: 100 % of control

Structure (SMILES): CN1CCC23c4c5ccc(O)c4OC2C(=NN=C2CCC4(O)C6Cc7ccc(O)c8c7C4(CCN6C)C2O8)CCC3(O)C1C5 (stereo not drawn)
- T/C (dose: 12.5 mg/kg/injection, schedule: Q01DX005 (ip), vehicle: saline with Tween-80): 96 % of control
- T/C (dose: 25.0 mg/kg/injection, schedule: Q01DX005 (ip), vehicle: saline with Tween-80): 90 % of control

Structure (SMILES): CC(=O)Nc1ccc2c(c1)C(N)c1ccccc1-2 (stereo not drawn)
- T/C (dose: 100.0 mg/kg/injection, schedule: Q04DX003 (ip), vehicle: saline with Tween-80): 104 % of control
- T/C (dose: 200.0 mg/kg/injection, schedule: Q04DX003 (ip), vehicle: saline with Tween-80): 118 % of control

Structure (SMILES): CC(C)(C#N)OC(=O)Nc1c(Cl)cccc1Cl
- T/C (dose: 60.0 mg/kg/injection, schedule: Q01DX005 (ip), vehicle: saline with Tween-80): 100 % of control
- T/C (dose: 120.0 mg/kg/injection, schedule: Q01DX005 (ip), vehicle: saline with Tween-80): 98 % of control
- T/C (dose: 240.0 mg/kg/injection, schedule: Q01DX005 (ip), vehicle: saline with Tween-80): 94 % of control

Structure (SMILES): COC(=O)CCSC(=O)Nc1ccc(Cl)cc1
- T/C [4]: 105 % of control
- T/C [5]: 101 % of control
- T/C (dose: 200.0 mg/kg/injection, schedule: Q01DX005 (ip), vehicle: Klucel (hydroxypropylcellulose) (HPC)): 113 % of control

Structure (SMILES): CCCCC(=O)CCCCCCCCC(=O)OCC
- T/C (dose: 100.0 mg/kg/injection, schedule: Q04DX003 (ip), vehicle: Klucel (hydroxypropylcellulose) (HPC)): 102 % of control
- T/C (dose: 200.0 mg/kg/injection, schedule: Q04DX003 (ip), vehicle: Klucel (hydroxypropylcellulose) (HPC)): 103 % of control
- T/C (dose: 400.0 mg/kg/injection, schedule: Q04DX003 (ip), vehicle: Klucel (hydroxypropylcellulose) (HPC)): 95 % of control

Structure (SMILES): CC(C)CCCC(C)C1CCC2C3CCC4CCC=CC4(C)C3CCC12C (stereo not drawn)
- T/C (dose: 30.0 mg/kg/injection, schedule: Q01DX005 (ip), vehicle: Klucel (hydroxypropylcellulose) (HPC)): 93 % of control
- T/C (dose: 60.0 mg/kg/injection, schedule: Q01DX005 (ip), vehicle: Klucel (hydroxypropylcellulose) (HPC)): 90 % of control
- T/C (dose: 120.0 mg/kg/injection, schedule: Q01DX005 (ip), vehicle: Klucel (hydroxypropylcellulose) (HPC)): 90 % of control
- T/C (dose: 240.0 mg/kg/injection, schedule: Q01DX005 (ip), vehicle: Klucel (hydroxypropylcellulose) (HPC)): 91 % of control

Structure (SMILES): O=[N+]([O-])c1ccc(-c2nc(/C=N/N3CCCCC3)cs2)s1
- T/C [11]: 104 % of control
- T/C [9]: 106 % of control
- T/C [10]: 109 % of control

Structure (SMILES): CC(=O)Nc1ccc(C(=O)C(C)Br)cc1 (stereo not drawn)
- T/C (dose: 6.25 mg/kg/injection, schedule: Q01DX009 (ip), vehicle: saline with Tween-80): 106 % of control and 117 % of control and 119 % of control
- T/C (dose: 12.5 mg/kg/injection, schedule: Q01DX009 (ip), vehicle: saline with Tween-80): 116 % of control and 117 % of control and 124 % of control
- T/C [11]: 108 % of control and 119 % of control and 124 % of control

Structure (SMILES): C[n+]1ccc(/C(C#N)=N/O)cc1
- T/C [12]: 119 % of control
- T/C [13]: 110 % of control
- T/C [14]: 109 % of control

Structure (SMILES): S=C(N/N=C/c1ccccn1)SCc1ccccc1
- T/C [12]: 101 % of control
- T/C [13]: 104 % of control
- T/C [14]: 100 % of control

Structure (SMILES): CSc1nccn[n+]1C
- T/C (dose: 100.0 mg/kg/injection, schedule: Q01DX001 (ip), vehicle: saline): 112 % of control
- T/C (dose: 200.0 mg/kg/injection, schedule: Q01DX001 (ip), vehicle: saline): 111 % of control
